Two compounds from PMC3871595, “Structure Based Identification and Characterization of Flavonoids That Disrupt Human Papillomavirus-16 E6 Function” (PLoS ONE, 2013) can be followed below.

Molecules are shown by their SMILES. Read-outs that look alike come from different tables or passages of the source.

Data set [1] relates to Caski cells. Briefly: SA-beta-gal senescence assay in Caski cells. Format: cell-based, human. The following applies: 72 hours, versus vehicle. As to the method:
This was specific to Caski cells and was not observed in RPE-1, HeLa cells, or the HPV negative control cell lines C33a and HaCat (Figures S2A,B ). […] As observed in the viability assay, this occurred in both the HPV positive and negative cell lines. […] These cell lines were also assayed for apoptosis.
12,000 cells per cm^2 were plated in 24-well dishes; after 24 hours, fresh media and compound were added. SA-beta gal staining was performed as described. Images were collected using bright field microscopy. At least four fields (~100 cells per field) were read for each treatment, and experiments were repeated 3 times. The percent SA-beta-gal positive cells was calculated for each data point.

In data set [2] the target is E6 fused to a GB1-fusion tag (GBF) (Human papillomavirus type 16, UniProt P03126). As to the kind of experiment: surface plasmon resonance direct binding, immobilized GBF-E6. Also noted: species or system HPV-16. The following applies: 1.6-12.5 µM. As to the method:
A reference cell with immobilized GBF was performed simultaneously for background subtraction. […] While direct binding was observed, the data could not be properly fit to determine binding affinity.
SPR analysis was performed on a Biacore 3000 instrument. Immobilized GBFE6 [43] was diluted to 30μg/mL in 10 mM sodium acetate, pH 4.0 and 5.0 and immobilized onto the dextran matrix of a CM5 sensor chip (Biacore) using the amine coupling method. All binding experiments were performed at 25 °C in 50 mM phosphate (pH 6.5) containing 200 mM NaCl. Pulses of 10 mM glycine (pH 3.0) were used to regenerate the surfaces between injections. […] SPR data were analyzed using BIAevaluation 4.1 software (Biacore).

Data set [3] relates to p21^Cip1/Waf1 mRNA. Briefly: p21 mRNA qRT-PCR. The following applies: relative to DMSO, normalized to GAPDH. Format: cell-based, human. As to the method:
It is possible that the increased p53 and p21 levels resulted from non-specific inhibition of protein degradation. However, if the increase in p21 was dependent upon p53 promoter activation, it should be possible to detect changes in the amounts of p21 mRNA detected in treated cells. To confirm that the increase in p21 protein level resulted from p53 activation, the levels of p21 mRNA were analyzed using qRT-PCR.
Figure 6 Induction of p21^Cip1/Waf1 mRNA. Compounds were tested for the ability to induce p21^Cip1/Waf1 expression at the mRNA level. Relative increases in transcripts were determined by qRT-PCR. […] Fold induction was calculated in relation to treatment with DMSO and normalized to GAPDH. Data were analyzed using one-way ANOVA with post-hoc analysis (Dunnetts; S.E.M.; n=2). Statistical significance (p<0.01) is indicated as * in comparison to Caski control (DMSO), # E6/E7 HFK control (DMSO), § HFK control (DMSO), and ◙ for RPE-1 control (DMSO).
20,000 cells per cm^2 were plated in 6-well dishes. Cells were incubated for 24 hours at which time fresh media and compound were added. […] Protein quantification was performed with the Fujifilm LAS-4000 Multifunctional Imaging System. The signal intensity was measured for each band on an immunoblot, normalized to the loading control, and the fold increase was determined in relation to the appropriate DMSO treated control. […]
In general terms: Quantitative PCR measures a nucleic acid by following its amplification.

For data set [4], the target named is T1, interaction between HPV-16 E6 and E6AP (Human papillomavirus type 16, UniProt P03126).
T1 construct: made in house; host or cells: E. coli BL21
T1 sequence (P03126 whole entry): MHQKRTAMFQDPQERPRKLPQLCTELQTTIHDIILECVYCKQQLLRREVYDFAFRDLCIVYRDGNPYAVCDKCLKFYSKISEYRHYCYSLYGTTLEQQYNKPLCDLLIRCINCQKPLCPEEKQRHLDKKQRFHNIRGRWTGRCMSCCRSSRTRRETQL
Briefly: biochemical. The following applies: for Emax: read-out: Maximal Inhibition. Format: binding. As for the experimental part: To characterize potential E6 inhibitors, a robust in vitro assay was developed to measure the interaction between HPV-16 E6 and E6AP. […] The core 70 amino acids of the E6 binding region of E6AP (residues 371-440) was fused to bacterial alkaline phosphatase (BAP) in the MY101 vector [40]. […] Binding efficiency was determined from the intensity of BAP activated chemiluminescence remaining in each well.
Kinetic analysis was performed to characterize the protein-protein interaction inherent in this assay.
The collection of 72 available structural-lead compounds was tested in the filter-plate based in vitro E6-E6AP binding assay. […] Compounds that disrupted the Flag-BAP interaction with the same potency as the HPV-16 E6 and E6AP interaction were classified as non-specific and eliminated from further analysis. […]
Pre-Block - 96-well filter plates were prepared (0.2 µm BioTrace NT, Pall). 100µL of blocking buffer (100 mM Tris pH 8.0, 100 mM NaCl, 0.1% milk) was added per well. Plates were blocked for 1 hr at RT on an orbital shaker. Buffer was removed by vacuum filtration using a vacuum manifold. GST-E6 Bead addition – GST-E6 beads were prepared at 5µg/mL in GST-E6 bead buffer (100 mM Tris pH 8.0, 100 mM NaCl, 0.1% milk, 2.5 mM DTT). 100µL of GST-E6 bead mix was added per well and incubated for 1 hr at 4°C. Buffer was removed by vacuum filtration. […] 48 µL of each reagent was added per well. For drug assay, 2µL of compound was added to each well and mixed thoroughly. […] Plates were incubated for 1-3 hours at RT on an orbital shaker. Buffer was removed by vacuum filtration. Plates were washed on the vacuum manifold, first with 200 µL buffer (100 mM Tris pH 8.0, 100 mM NaCl, 1 mM DTT), and twice more with 100µL lysis buffer without DTT. Plates were cleared and dried with on the vacuum manifold. Assay – Immunostar assay reagent was prepared and equilibrated to RT prior to addition. 60 µL of Immunostar-AP assay reagent was added, the BAP activity was allowed to develop for 10 minutes and the plates were read on a Wallace Luminometer. BAP activity was measured as relative light units (RLU) on a luminometer using the Immunostar-AP substrate (BioRad).

The subject of data set [5] is Caski, HeLa, RPE-1, C33a and HaCat cells. Briefly: cell number and morphology (bright field microscopy). The note with it: 72 hours. Type of data set: cell-based, human.
The mark [6] stands for this setting: full 7-point dose response, 0.5 µM to 333 µM, quadruplicate.

E6 fused to a GB1-fusion tag (GBF), sequence (P03126 whole entry, the tested form may be a part): as the sequence (P03126 whole entry) above

For orientation: IC50 means the concentration that inhibits the measured activity by half. A low value points to greater potency. Consider `O=c1cc(-c2ccc(O)c(O)c2)oc2cc(O)cc(O)c12` [luteolin, reference compound], for which the SA-β-gal staining result in data set [1] is listed as “no significant increase in β-gal staining”. The “direct binding to E6 (SPR response)” value in data set [2] is given as “directly binds to E6 protein”. Besides, in data set [3], the “p21 mRNA level” value is listed as “increase in p21 mRNA”. In data set [4], it took 4.3 µM to reach half-maximal inhibition (IC50) and the Emax was 99%. Also, the “inhibition of the interaction between E6 and E6AP” value in data set [4] (full 7-point binding assay, maximum) is recorded as “up to 100%”. Further, the half-inhibitory concentration (IC50) entry in data set [4] (setting [6]) is reported as “low micromolar IC50 values”. Also, the “number of cells per well” value in data set [5] is recorded as “dramatic decrease in the number of cells per well”.

On to `COc1cccc(-c2cc(=O)c3cc(-c4nnn[nH]4)ccc3o2)c1` [CAF-24], for which the SA-β-gal staining entry in data set [1] is recorded as “increased more than two-fold”. For the same compound, the “p21 mRNA level” value in data set [3] was “increase in p21 mRNA”. In data set [4], half-maximal inhibition (IC50) required 2.8 µM and the Emax is 95%. Also, the concentration for half-maximal inhibition (IC50) entry in data set [4] (setting [6]) is “low micromolar IC50 values”. In addition, the “number of cells per well” value in data set [5] is “decreased Caski and HeLa cell numbers”. Besides, the cell morphology entry in data set [5] (luteolin @ 50µM) is recorded as “no change in cell morphology”.
